Ends that are not written are not given here.

In experiment [1] the target is T1, hexahistidine tagged MDM2 (18–125) (Homo sapiens, UniProt Q00987).
T1 construct: DNA encoding residues Q18 to N125 of HDM2; made in house; host or cells: E. coli BL21(DE3)
The experiment in a line: Isothermal titration calorimetry (ITC) of ligands against MDM2. Type of experiment: binding. As to conditions: PBS pH 7.4, 0.05% TWEEN20, 1% DMSO; for Kd: 10 or 20 µM MDM2 in cell. How it is done:
DNA encoding residues Q18 to N125 of HDM2 were cloned as a NdeI/BamHI fragment into pET19b (Novagen). Recombinant clones carrying the correct insert were identified by DNA sequencing. Plasmid from the identified clone was introduced into E. coli BL21(DE3) and protein production in LB medium was induced with IPTG (1 mM) when the cell density reached OD600 between 0.4 and 0.6. Induced cells were grown at room temperature for 5 h, harvested, and then resuspended in buffer A (50 mM Tris pH 8.0, 10% sucrose). After cell disruption and centrifugation, supernatant was loaded onto a Ni-nitrilotriacetic acid (NTA) column and washed with 5 column volumes of 0.3 M NaCl, 50 mM Tris-HCl pH 8.0, 1 mM DTT. […] The protein was further purified by cation-exchange chromatography (Pharmacia Mono S 5/5, 1 ml/min, 50 mM Tris-HCl pH 7.0, 1 mM DTT) with a 1 M NaCl gradient.
ITC experiments were conducted in a VP-ITC Unit (MicroCal, Northampton, MA). […] All titrations were carried out in 1% DMSO. […] All peptides used were weighed out as solids and dissolved in DMSO. The stock peptide solutions were diluted to their working concentrations in the buffer used for dialysis of the protein. DMSO was carefully added to the MDM2 solution in the VP-ITC cell to buffer match it to the peptide solution. The titration experiments were performed at 20°C with an initial 2 µl injection with duration of 4 s, followed by 28 10 µl injections with a duration of 7.1 s. The spacing between each injection was 150 s. The stirring speed during the titration was 290 rpm. Data was analyzed using Microcal Origin software by fitting to a single-site binding model. Correction for the enthalpy of ligand dilution was carried out by subtracting a linear fit from the last three data points of the titration, after the interaction had reached saturation.
On the technique in general: ITC needs no label: the signal is the heat of the interaction.

Experiment [2] has as its system N-terminal domain of MDM2. As to conditions: peptide of residues 12–30 of WT p53, binding to N-terminal domain of MDM2; ref 10 (Zondlo et al.); cited from earlier work. An excerpt: The molecular interaction of the binding of the MDM2 N-terminal domain to the p53 N-terminus (TA domain) is well understood. Several high-resolution crystal and NMR structures in complex with a variety of peptides and small molecules have been elucidated, [8]. These structural studies indicate that the residues F19, W23 and L26 of the TA domain of p53 are critical for binding to MDM2. Indeed most peptides, peptidomimetics and small molecules that have been developed have indeed emerged as a result of mimicking these interactions. However, it has been known for some time that the other ...

Setting [3] is: 293 K (20°C), single-site binding model.

T1 sequence (Q00987 18-125): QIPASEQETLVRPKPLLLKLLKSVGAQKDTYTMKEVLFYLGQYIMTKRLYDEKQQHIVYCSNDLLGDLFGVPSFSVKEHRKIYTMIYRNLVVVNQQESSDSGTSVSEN

A word on the Kd: it is the concentration at which binding is half-saturated. High values mean a looser complex, low ones a tighter complex. Turning to `CSCC[C@H](NC(=O)[C@H](Cc1ccccc1)NC(=O)[C@H](CCCNC(=N)N)NC(=O)[C@@H]1CCCN1C(=O)[C@@H](N)CCSC)C(=O)N[C@@H](CC(=O)O)C(=O)N[C@@H](Cc1ccc(O)cc1)C(=O)N[C@@H](Cc1c[nH]c2ccccc12)C(=O)N[C@@H](CCC(=O)O)C(=O)NCC(=O)N[C@@H](CC(C)C)C(=O)N[C@@H](CO)C(N)=O` [12/1Ser], binding in experiment [1] (setting [3]) was put at a Kd of 18.8 ± 5.03 nM.

`CC(C)C[C@H](NC(=O)[C@H](CC(C)C)NC(=O)[C@H](CCCCN)NC(=O)[C@H](Cc1c[nH]c2ccccc12)NC(=O)[C@H](CC(C)C)NC(=O)[C@H](CC(=O)O)NC(=O)[C@H](CO)NC(=O)[C@H](Cc1ccccc1)NC(=O)[C@@H](NC(=O)[C@H](CCC(=O)O)NC(=O)[C@@H](N)CCC(N)=O)[C@@H](C)O)C(=O)N[C@@H](CC(N)=O)C(N)=O` [P53 Asn]: in experiment [1] (setting [3]), the Kd worked out at 168 ± 9.24 nM.

The compound `CC(C)C[C@H](NC(=O)[C@H](CC(C)C)NC(=O)[C@H](CCCCN)NC(=O)[C@H](Cc1c[nH]c2ccccc12)NC(=O)[C@H](CC(C)C)NC(=O)[C@H](CC(=O)O)NC(=O)[C@H](CO)NC(=O)[C@H](Cc1ccccc1)NC(=O)[C@@H](NC(=O)[C@H](CCC(=O)O)NC(=O)[C@@H](N)CCC(N)=O)[C@@H](C)O)C(=O)N[C@@H](C)C(N)=O` [p53 Ala] gave a Kd in experiment [1] (setting [3]) of 112 ± 17.9 nM.

On to `CC(C)C[C@H](NC(=O)[C@H](CC(C)C)NC(=O)[C@H](CCCCN)NC(=O)[C@H](Cc1c[nH]c2ccccc12)NC(=O)[C@H](CC(C)C)NC(=O)[C@H](CC(=O)O)NC(=O)[C@H](CO)NC(=O)[C@H](Cc1ccccc1)NC(=O)[C@@H](NC(=O)[C@H](CCC(=O)O)NC(=O)[C@@H](N)CCC(N)=O)[C@@H](C)O)C(=O)N[C@@H](CO)C(N)=O` [p53 Ser], for which the affinity in experiment [1] (setting [3]), expressed as Kd, was 75.8 ± 10.4 nM.

Turning to `CC(C)C[C@H](NC(=O)[C@H](CC(=O)O)NC(=O)[C@H](CO)NC(=O)[C@H](Cc1ccccc1)NC(=O)[C@@H](NC(=O)[C@H](CCC(=O)O)NC(=O)[C@@H](N)CCC(N)=O)[C@@H](C)O)C(=O)N[C@@H](Cc1c[nH]c2ccccc12)C(=O)N[C@@H](CCCCN)C(=O)N[C@@H](CC(C)C)C(=O)N[C@@H](CC(C)C)C(=O)N[C@H](C(N)=O)[C@@H](C)O` [p53Thr], binding in experiment [1] (setting [3]) was put at a Kd of 38.8 ± 7.43 nM.

MPRFMDYWEGLA-NH2 [12/1Ala] displayed a dissociation constant Kd in experiment [1] (setting [3]) of 47.2 ± 11.1 nM.

Consider MPRFMDYWEGLN-NH2 [12/1], for which the affinity in experiment [1] (setting [3]), expressed as Kd, was 240 ± 53.8 nM.

In experiment [1] (setting [3]), MPRFMDYWEGLP-NH2 [12/1Pro] gave a dissociation constant Kd of 213 ± 36.6 nM.

In experiment [1] (setting [3]), MPRFMDYWEGLT-NH2 [12/1Thr] displayed a Kd of 22.9 ± 4.21 nM. This Kd is about 9.3-fold lower than that of the compound before.

In the case of “Nutlin [Nutlin Racemic, reference compound]”, the ΔG in experiment [1] (binding free energy calculated from the Kd using ΔG = −RTlnKa, 293 K) was -8.97 ± 0.15 kcal/mol. The compound further had a ΔH in experiment [1] (enthalpy of binding, 293 K (20°C), single-site binding model) of -6.10 ± 0.16 kcal/mol. The same compound showed a TΔS in experiment [1] (entropy of binding, 293 K (20°C)) of 2.88 kcal/mol.

For “P27S: P27S substitution in a peptide corresponding to residues 12–30 of the WT p53 sequence (Zondlo et al.) (PPLSQETFSDLWKLLSENN; not fully specified (C-terminus); UniProt P04637 12-30, looked up, variant P27S)”, in experiment [2], the “fold improvement in Kd over the wild type sequence” value is listed as about 200 fold.

These data come from PMC3164098, “C-Terminal Substitution of MDM2 Interacting Peptides Modulates Binding Affinity by Distinctive Mechanisms” (PLoS ONE, 2011).
